Measured values from ChEMBL document CHEMBL3885881, “DrugMatrix”.

Species on record: Rattus norvegicus
Experiment: DrugMatrix - Regimen: Daily Repeat
Assay type: toxicity, organism-based, Sprague-Dawley
Design: regimen Daily Repeat, gender Male, age 6-8 weeks
Details: in vivo, po, route oral GAVAGE, vehicle 100 % WATER; for ABSOLUTE BASOPHIL / ABSOLUTE EOSINOPHIL / ABSOLUTE LYMPHOCYTE / ABSOLUTE MONOCYTE / ABSOLUTE SEGMENTED NEUTROPHIL / BASOPHIL / EOSINOPHIL / ERYTHROCYTE COUNT / HEMATOCRIT / HEMOGLOBIN / LEUKOCYTE COUNT / LYMPHOCYTE / MEAN CORPUSCULAR HEMOGLOBIN / MEAN CORPUSCULAR HEMOGLOBIN CONCENTRATION / MEAN CORPUSCULAR VOLUME / MONOCYTE / NEUTROPHIL / NUCLEATED RED BLOOD CELLS / PLATELET COUNT: tissue Blood; for ALANINE AMINOTRANSFERASE / ALBUMIN / ALKALINE PHOSPHATASE / ASPARTATE AMINOTRANSFERASE / BLOOD UREA NITROGEN / CARBON DIOXIDE / CHLORIDE / CHOLESTEROL / CREATINE PHOSPHOKINASE / CREATININE / GLUCOSE / LACTATE DEHYDROGENASE / LIPASE / PHOSPHORUS / POTASSIUM / SODIUM / TOTAL BILIRUBIN / TOTAL PROTEIN / URIC ACID: tissue Plasma
[1] = 5 mg/kg, 120 h, dose level Low, time 5 day
[2] = 15 mg/kg, 72 h, dose level High, time 3 day
[3] = 15 mg/kg, 120 h, dose level High, time 5 day

C[N+](C)(C)CCOC(N)=O.[Cl-] [CARBACHOL]
ABSOLUTE BASOPHIL [1]: 0 CELLS/uL | ABSOLUTE EOSINOPHIL [1]: 0 CELLS/uL | ABSOLUTE LYMPHOCYTE [1]: 11606.67 CELLS/uL | ABSOLUTE MONOCYTE [1]: 117 CELLS/uL | ABSOLUTE SEGMENTED NEUTROPHIL [1]: 1076.33 CELLS/uL | BASOPHIL [1]: 0% | EOSINOPHIL [1]: 0% | ERYTHROCYTE COUNT [1]: 5.68 x10E6/uL | HEMATOCRIT [1]: 35.2% | HEMOGLOBIN [1]: 13.47 G/DL | LEUKOCYTE COUNT [1]: 12.8 x10E3/uL | LYMPHOCYTE [1]: 90.33% | MEAN CORPUSCULAR HEMOGLOBIN [1]: 23.7 pg | MEAN CORPUSCULAR HEMOGLOBIN CONCENTRATION [1]: 38.27 G/DL | MEAN CORPUSCULAR VOLUME [1]: 62 fL | MONOCYTE [1]: 1% | NEUTROPHIL [1]: 8.67% | NUCLEATED RED BLOOD CELLS [1]: 0 /100WBC | PLATELET COUNT [1]: 1163.67 x10E3/uL | ALANINE AMINOTRANSFERASE [1]: 62.33 u/L | ALBUMIN [1]: 3.97 G/DL | ALKALINE PHOSPHATASE [1]: 368 u/L | ASPARTATE AMINOTRANSFERASE [1]: 96.33 u/L | BLOOD UREA NITROGEN [1]: 14.67 mg/dL | CARBON DIOXIDE [1]: 33.33 mmol/L | CHLORIDE [1]: 99.33 MEQ/L | CHOLESTEROL [1]: 68.33 mg/dL | CREATINE PHOSPHOKINASE [1]: 498.67 u/L | CREATININE [1]: 0.15 mg/dL | GLUCOSE [1]: 136.67 mg/dL | LACTATE DEHYDROGENASE [1]: 139.33 u/L | LIPASE [1]: 8.67 u/L | PHOSPHORUS [1]: 10.83 mg/dL | POTASSIUM [1]: 5.88 MEQ/L | SODIUM [1]: 143.33 MEQ/L | TOTAL BILIRUBIN [1]: 0.2 mg/dL | TOTAL PROTEIN [1]: 5.77 G/DL | URIC ACID [1]: 0.63 mg/dL | ABSOLUTE BASOPHIL [2]: 0 CELLS/uL | ABSOLUTE EOSINOPHIL [2]: 0 CELLS/uL | ABSOLUTE LYMPHOCYTE [2]: 9349.33 CELLS/uL | ABSOLUTE MONOCYTE [2]: 72.33 CELLS/uL | ABSOLUTE SEGMENTED NEUTROPHIL [2]: 311.67 CELLS/uL | BASOPHIL [2]: 0% | EOSINOPHIL [2]: 0% | ERYTHROCYTE COUNT [2]: 5.27 x10E6/uL | HEMATOCRIT [2]: 33.67% | HEMOGLOBIN [2]: 12.87 G/DL | LEUKOCYTE COUNT [2]: 9.73 x10E3/uL | LYMPHOCYTE [2]: 95.67% | MEAN CORPUSCULAR HEMOGLOBIN [2]: 24.4 pg | MEAN CORPUSCULAR HEMOGLOBIN CONCENTRATION [2]: 38.23 G/DL | MEAN CORPUSCULAR VOLUME [2]: 63.83 fL | MONOCYTE [2]: 0.67% | NEUTROPHIL [2]: 3.67% | NUCLEATED RED BLOOD CELLS [2]: 0 /100WBC | PLATELET COUNT [2]: 1174 x10E3/uL | ALANINE AMINOTRANSFERASE [2]: 42.33 u/L | ALBUMIN [2]: 3.9 G/DL | ALKALINE PHOSPHATASE [2]: 336.33 u/L | ASPARTATE AMINOTRANSFERASE [2]: 77 u/L | BLOOD UREA NITROGEN [2]: 11.33 mg/dL | CARBON DIOXIDE [2]: 34 mmol/L | CHLORIDE [2]: 101 MEQ/L | CHOLESTEROL [2]: 72 mg/dL | CREATINE PHOSPHOKINASE [2]: 402.67 u/L | CREATININE [2]: 0.11 mg/dL | GLUCOSE [2]: 134.67 mg/dL | LACTATE DEHYDROGENASE [2]: 129.33 u/L | LIPASE [2]: 9 u/L | PHOSPHORUS [2]: 11.9 mg/dL | POTASSIUM [2]: 5.89 MEQ/L | SODIUM [2]: 146.47 MEQ/L | TOTAL BILIRUBIN [2]: 0.13 mg/dL | TOTAL PROTEIN [2]: 5.67 G/DL | URIC ACID [2]: 0.5 mg/dL | ABSOLUTE BASOPHIL [3]: 0 CELLS/uL | ABSOLUTE EOSINOPHIL [3]: 48 CELLS/uL | ABSOLUTE LYMPHOCYTE [3]: 6680.67 CELLS/uL | ABSOLUTE MONOCYTE [3]: 148.67 CELLS/uL | ABSOLUTE SEGMENTED NEUTROPHIL [3]: 722.67 CELLS/uL | BASOPHIL [3]: 0% | EOSINOPHIL [3]: 0.67% | ERYTHROCYTE COUNT [3]: 5.28 x10E6/uL | HEMATOCRIT [3]: 33.7% | HEMOGLOBIN [3]: 13.03 G/DL | LEUKOCYTE COUNT [3]: 7.6 x10E3/uL | LYMPHOCYTE [3]: 87.67% | MEAN CORPUSCULAR HEMOGLOBIN [3]: 24.73 pg | MEAN CORPUSCULAR HEMOGLOBIN CONCENTRATION [3]: 38.7 G/DL | MEAN CORPUSCULAR VOLUME [3]: 63.97 fL | MONOCYTE [3]: 2% | NEUTROPHIL [3]: 9.67% | NUCLEATED RED BLOOD CELLS [3]: 0 /100WBC | PLATELET COUNT [3]: 1083.67 x10E3/uL | ALANINE AMINOTRANSFERASE [3]: 53 u/L | ALBUMIN [3]: 3.73 G/DL | ALKALINE PHOSPHATASE [3]: 301 u/L | ASPARTATE AMINOTRANSFERASE [3]: 93 u/L | BLOOD UREA NITROGEN [3]: 15.67 mg/dL | CARBON DIOXIDE [3]: 30.67 mmol/L | CHLORIDE [3]: 101.67 MEQ/L | CHOLESTEROL [3]: 64 mg/dL | CREATINE PHOSPHOKINASE [3]: 243.33 u/L | CREATININE [3]: 0.18 mg/dL | GLUCOSE [3]: 145.67 mg/dL | LACTATE DEHYDROGENASE [3]: 116.33 u/L | LIPASE [3]: 11 u/L | PHOSPHORUS [3]: 10.67 mg/dL | POTASSIUM [3]: 5.44 MEQ/L | SODIUM [3]: 146.13 MEQ/L | TOTAL BILIRUBIN [3]: 0.1 mg/dL | TOTAL PROTEIN [3]: 5.47 G/DL | URIC ACID [3]: 0.57 mg/dL
